According to US12319684B2 (Sanford Burnham Prebys Medical Discovery Institute, priority 2014, dated 2025):
Where two headings read alike, the source gives them in different places.

Molecular target: T1, human apelin receptor (APJ, AGTRL-1, APLNR) (Homo sapiens, UniProt P35414)
T1 construct: host or cells: Chinese hamster ovary cells
T1 sequence (P35414 1-380): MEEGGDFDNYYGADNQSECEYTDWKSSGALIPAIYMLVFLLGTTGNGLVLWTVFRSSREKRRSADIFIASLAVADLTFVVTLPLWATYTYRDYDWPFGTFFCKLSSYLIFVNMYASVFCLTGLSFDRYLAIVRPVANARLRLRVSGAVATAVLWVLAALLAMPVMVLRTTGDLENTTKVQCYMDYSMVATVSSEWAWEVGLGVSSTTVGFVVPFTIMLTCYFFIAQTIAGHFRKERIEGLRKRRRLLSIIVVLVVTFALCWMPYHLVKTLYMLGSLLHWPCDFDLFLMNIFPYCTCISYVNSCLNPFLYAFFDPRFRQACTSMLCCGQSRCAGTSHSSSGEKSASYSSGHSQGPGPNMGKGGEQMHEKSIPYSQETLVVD
Assay: APJ cAMP cell-based assay (forskolin-stimulated CHO cells, enzyme fragment complementation)
Conditions: for Emax: CHO, 0.5 h, read-out: APJ cAMP % resp (efficacy)
Method: The assays disclosed herein were performed using cell lines from DiscoveRx, Inc.
Biological activity was determined in a cell-based assay. This assay detects activation of the receptor by reporting on intracellular cyclic adenosine monophosphate (cAMP) level. Chinese hamster ovary cells engineered to express a stably integrated human apelin receptor (APJ, AGTRL-1, APLNR), were plated into the wells of a microtiter plate. Cells were stimulated with forskolin to increase intracellular cAMP. Immediately following, compounds were added at a range of final concentrations 0.0-100 μM, in DMSO (not to exceed a final DMSO concentration of >1% v/v), and allowed to incubate with the cells for 0.5 h. At the end of the incubation, cells were lysed to stop APJ signaling, and cAMP was quantified using a commercially available assay kit that applies enzyme fragment complementation technology and bioluminescence, in a competitive ELISA format.
Compound efficacy (% resp) is reported as a percentage of the maximal apelin-13 response at 1 nM (control).

[1] = CHO cells expressing human APJ, forskolin-stimulated, 0.5 h incubation, 50% of control (apelin-13, 1 nM) response, read-out: APJ cAMP EC50
[2] = percentage of the maximal apelin-13 response at 1 nM (control)

Structure (SMILES)	EC50 [1]	Emax [2]	EC50	Emax
COc1ccccc1-n1c(SCc2cc(=O)n3cc(C)ccc3n2)nnc1-c1ccoc1 [Example 16, 2-[5-Furan-3-yl-4-(2-methoxy-phenyl)-4H-[1,2,4]triazol-3-ylsulfanylmethyl]-7-methyl-pyrido[1,2-a]pyrimidin-4-one]	0.0968 µM	84%	–	–
COc1ccc(-n2c(SCc3cc(=O)n4cc(C)ccc4n3)nnc2-c2cccs2)cn1 [Example 30]	> 10 µM	31%	–	–
COc1ccccc1-n1c(NCc2csc(-c3ccc(C)cc3)n2)nnc1-c1cccs1 [Example 86, [4-(2-Methoxy-phenyl)-5-thiophen-2-yl-4H-[1,2,4]triazol-3-yl]-(2-p-tolyl-thiazol-4-ylmethyl)-amine]	> 10 µM	–	–	–
Cc1ccc2nc(CSc3nnc(-c4cccs4)n3-c3cccc(Cl)c3)cc(=O)n2c1 [Example 28, 2-[4-(3-Chloro-phenyl)-5-thiophen-2-yl-4H-[1,2,4]triazol-3-ylsulfanylmethyl]-7-methyl-pyrido[1,2-a]pyrimidin-4-one]	> 10 µM	91%	–	–
COc1ccccc1-n1c(OCc2coc(-c3ccccc3)n2)nnc1-c1cccs1 [Example 81, 4-(2-Methoxy-phenyl)-3-(2-phenyl-oxazol-4-ylmethoxy)-5-thiophen-2-yl-4H-[1,2,4]triazole]	0.238 µM	101%	–	–
Cc1ccc2nc(CSc3nnc(-c4cccs4)n3-c3ccc(OC(F)(F)F)cc3)cc(=O)n2c1 [Example 25, 7-Methyl-2-[5-thiophen-2-yl-4-(4-trifluoromethoxy-phenyl)-4H-[1,2,4]triazol-3-ylsulfanylmethyl]-pyrido[1,2-a]pyrimidin-4-one]	> 10 µM	52%	–	–
COc1ccccc1-n1c(SCc2cc(=O)n3cc(C)ccc3n2)nnc1-c1ccccc1 [Example 3, 2-[4-(2-Methoxy-phenyl)-5-phenyl-4H-[1,2,4]triazol-3-ylsulfanylmethyl]-7-methyl-pyrido[1,2-a]pyrimidin-4-one]	6.16 µM	136%	–	–
Cc1ccc2nc(CSc3nnc(-c4cccs4)n3-c3ccccc3OC(F)(F)F)cc(=O)n2c1 [Example 27, 7-Methyl-2-[5-thiophen-2-yl-4-(2-trifluoromethoxy-phenyl)-4H-[1,2,4]triazol-3-ylsulfanylmethyl]-pyrido[1,2-a]pyrimidin-4-one]	0.0174 µM	82%	–	–
COc1ccccc1-n1c(SCc2nc(=O)c3cc(C(F)(F)F)ccc3[nH]2)nnc1-c1cccs1 [Example 64, 2-[4-(2-Methoxy-phenyl)-5-thiophen-2-yl-4H-[1,2,4]triazol-3-ylsulfanylmethyl]-6-trifluoromethyl-1H-quinazolin-4-one]	0.365 µM	92%	–	–
COc1ccccc1-n1c(SCc2nc(=O)c3ccccc3[nH]2)nnc1-c1cccs1 [Example 52, 2-[4-(2-Methoxy-phenyl)-5-thiophen-2-yl-4H-[1,2,4]triazol-3-ylsulfanylmethyl]-1H-quinazolin-4-one]	–	–	0.24 µM	113%
COc1ccccc1-n1c(SCc2cc(=O)n3cc(C)ccc3n2)nnc1-c1cccn1C [Example 18, 2-[4-(2-Methoxy-phenyl)-5-(1-methyl-1H-pyrrol-2-yl)-4H-[1,2,4]triazol-3-ylsulfanylmethyl]-7-methyl-pyrido[1,2-a]pyrimidin-4-one]	1.7 µM	58%	–	–

The next lines start with results.

EC50 [1]	Emax [2]	Structure (SMILES)	EC50	Emax
0.482 µM	87%	COc1ccccc1-n1c(SCc2nc(=O)c3ccc(Cl)cc3[nH]2)nnc1-c1cccs1 [Example 66, 7-Chloro-2-[4-(2-methoxy-phenyl)-5-thiophen-2-yl-4H-[1,2,4]triazol-3-ylsulfanylmethyl]-1H-quinazolin-4-one]	–	–
13.6 µM	176%	COc1ccccc1-n1c(SCc2cc(=O)n3cc(C)ccc3n2)nnc1-c1ccc(N(C)C)cc1 [Example 6, 2-[5-(4-Dimethylamino-phenyl)-4-(2-methoxy-phenyl)-4H-[1,2,4]triazol-3-ylsulfanylmethyl]-7-methyl-pyrido[1,2-a]pyrimidin-4-one]	–	–
0.00444 µM	52%	COc1ccccc1-n1c(SCc2cc(=O)n3cc(C)ccc3n2)nnc1-c1ccc(C)o1 [Example 15, 2-[4-(2-Methoxy-phenyl)-5-(5-methyl-furan-2-yl)-4H-[1,2,4]triazol-3-ylsulfanylmethyl]-7-methyl-pyrido[1,2-a]pyrimidin-4-one]	–	–
1.17 µM	80%	COc1ccccc1-n1c(SCc2csc(-c3ccc(F)cc3)n2)nnc1-c1cccs1 [Example 33, 3-[2-(4-Fluoro-phenyl)-thiazol-4-ylmethylsulfanyl]-4-(2-methoxy-phenyl)-5-thiophen-2-yl-4H-[1,2,4]triazole]	–	–
1.49 µM	89%	COc1ccccc1-n1c(SCc2cc(=O)n3cc(C)ccc3n2)nnc1-c1sccc1C [Example 12, 2-[4-(2-Methoxy-phenyl)-5-(3-methyl-thiophen-2-yl)-4H-[1,2,4]triazol-3-ylsulfanylmethyl]-7-methyl-pyrido[1,2-a]pyrimidin-4-one]	–	–
0.451 µM	125%	COc1ccccc1-n1c(SCc2cc(=O)n3ccc(C)cc3n2)nnc1-c1cccs1 [Example 51, 2-[4-(2-Methoxy-phenyl)-5-thiophen-2-yl-4H-[1,2,4]triazol-3-ylsulfanylmethyl]-8-methyl-pyrido[1,2-a]pyrimidin-4-one]	–	–
15 µM	80%	COc1ccccc1-n1c(SCc2ccccc2F)nnc1-c1cccs1 [Example 74, 3-(2-Fluoro-benzylsulfanyl)-4-(2-methoxy-phenyl)-5-thiophen-2-yl-4H-[1,2,4]triazole]	–	–
6.63 µM	51%	COc1ccccc1-n1c(SCc2cc(=O)n3cc(C)ccc3n2)nnc1-c1ccc([N+](=O)[O-])cc1 [Example 7, 2-[4-(2-Methoxy-phenyl)-5-(4-nitro-phenyl)-4H-[1,2,4]triazol-3-ylsulfanylmethyl]-7-methyl-pyrido[1,2-a]pyrimidin-4-one]	–	–
0.0313 µM	118%	COc1ccccc1-n1c(SCc2nc(=O)c3cc(C#N)ccc3[nH]2)nnc1-c1cccs1 [Example 54, 2-[4-(2-Methoxy-phenyl)-5-thiophen-2-yl-4H-[1,2,4]triazol-3-ylsulfanylmethyl]-4-oxo-1,4-dihydro-quinazoline-6-carbonitrile]	–	–
> 10 µM	18%	COc1ccccc1-n1c(SCc2coc(-c3ccc(C(F)(F)F)cc3)n2)nnc1-c1cccs1 [Example 38, 4-(2-Methoxy-phenyl)-3-thiophen-2-yl-5-[2-(4-trifluoromethyl-phenyl)-oxazol-4-ylmethylsulfanyl]-4H-[1,2,4]triazole]	–	–
8.62 µM	107%	COc1ccccc1-n1c(SCc2nc(=O)c3c(F)cccc3[nH]2)nnc1-c1cccs1 [Example 56, 5-Fluoro-2-[4-(2-methoxy-phenyl)-5-thiophen-2-yl-4H-[1,2,4]triazol-3-ylsulfanylmethyl]-1H-quinazolin-4-one]	–	–
> 10 µM	83%	COc1ccccc1-n1c(SCc2csc(-c3ccc(C)cc3)n2)nnc1-c1cccs1 [Example 36, 4-(2-Methoxy-phenyl)-3-thiophen-2-yl-5-(2-p-tolyl-thiazol-4-ylmethylsulfanyl)-4H-[1,2,4]triazole]	–	–
> 10 µM	57%	COc1ccccc1-n1c(SCc2cc(=O)n3cc(C)ccc3n2)nnc1-c1nccn1C [Example 19, 2-[4-(2-Methoxy-phenyl)-5-(1-methyl-1H-imidazol-2-yl)-4H-[1,2,4]triazol-3-ylsulfanylmethyl]-7-methyl-pyrido[1,2-a]pyrimidin-4-one]	–	–
10.2 µM	166%	COc1ccccc1-n1c(SCc2cccc(F)c2)nnc1-c1cccs1 [Example 73, 3-(3-Fluoro-benzylsulfanyl)-4-(2-methoxy-phenyl)-5-thiophen-2-yl-4H-[1,2,4]triazole]	–	–
0.772 µM	105%	COc1ccccc1-n1c(SCc2cc(=O)n3cc(C)ccc3n2)nnc1-c1nccs1 [Example 14, 2-[4-(2-Methoxy-phenyl)-5-thiazol-2-yl-4H-[1,2,4]triazol-3-ylsulfanylmethyl]-7-methyl-pyrido[1,2-a]pyrimidin-4-one]	–	–
> 10 µM	90%	COc1ccccc1-n1c(SCc2csc(-c3ccc(Cl)cc3)n2)nnc1-c1cccs1 [Example 35, 3-[2-(4-Chloro-phenyl)-thiazol-4-ylmethylsulfanyl]-4-(2-methoxy-phenyl)-5-thiophen-2-yl-4H-[1,2,4]triazole]	–	–
0.0234 µM	107%	COc1ccccc1-n1c(SCc2cc(=O)n3cc(F)ccc3n2)nnc1-c1cccs1 [Example 49, 7-Fluoro-2-[4-(2-methoxy-phenyl)-5-thiophen-2-yl-4H-[1,2,4]triazol-3-ylsulfanylmethyl]-pyrido[1,2-a]pyrimidin-4-one]	–	–
